Assays:
[1] = system: kit*5AP (DNA, G4, 2-aminopurine at 5 (replaces A)) GGCGAGGAGGGGCGTGGCCGGC; test: 2-aminopurine fluorescence titration; conditions: 150 mM K+; 10 mM Tris, pH 7.5, 25 °C; apparent; 0.5 µM DNA, single-site fit
[2] = system: kit* (DNA, G4) GGCGAGGAGGGGCGTGGCCGGC; test: CD titration; conditions: K+ (150 mM in Methods, 100 mM in Figure S3 legend); 10 mM Tris, pH 7.5, 25 °C; 4 µM DNA
[3] = system: kit*8AP (DNA, G4, 2-aminopurine at 8 (replaces A)) GGCGAGGAGGGGCGTGGCCGGC; test: 2-aminopurine fluorescence titration; conditions: 150 mM K+; 10 mM Tris, pH 7.5, 25 °C; apparent; 0.5 µM DNA, single-site fit
[4] = system: kit2-kit* (DNA, G4) CGGGCGGGCGCGAGGGAGGGGAGGCGAGGAGGGGCGTGGCCGGC; test: CD titration; conditions: K+ (150 mM in Methods, 100 mM in Figure S3 legend); 10 mM Tris, pH 7.5, 25 °C; 4 µM DNA
[5] = system: kit* (DNA, G4) GGCGAGGAGGGGCGTGGCCGGC; test: SPR steady state; conditions: 150 mM K+; 10 mM Tris, pH 7.5, 25 °C; apparent; one-site plus non-specific fit; DMSO < 1%

| Kd [1] | binding [2] | Kd [3] | binding [4] | Kd [5] | Compound |
| --- | --- | --- | --- | --- | --- |
| 2240 ± 170 nM | yes | 1780 ± 150 nM | yes | 6710 ± 1260 nM | C(=NNC1=NCCN1)c1cccc2cc3cccc(C=NNC4=NCCN4)c3cc12 |
| 320 ± 20 nM | yes | 310 ± 20 nM | yes | 510 ± 90 nM | NCCCC[C@H](N)C(=O)NCCC(=O)Nc1cccc2c1C(=O)c1cccc(NC(=O)CCNC(=O)[C@@H](N)CCCCN)c1C2=O |
